According to US20260297081A1, “COMPOUNDS AND METHODS OF TREATING CANCERS” (Cullgen Inc., priority 2023, published 2026):
pIC50: −log10 of the molar value.

What follows are compounds tested on MCF7 cells (assay: Anti-proliferation (viability) of MCF7 cells (Table 7, FIG. 2B)). Conditions: Homo sapiens, MCF7, MCF7 cells, 3-6 days, 10-point serial dilution; read-out: GI IC50 in MCF-7.
Format: cell-based

CC(=O)c1c(C)c2cnc(Nc3ccc(N4CCC5(CC4)CC5C(=O)N4CC5(CC(Nc6nc(NC(C)C)ccc6C(=O)Nc6cc(C)n(C)n6)C5)C4)cn3)nc2n(C2CCCC2)c1=O (stereo not shown) [CPD-415, 2-((2-(6-(6-((6-acetyl-8-cyclopentyl-5-methyl-7-oxo-7,8-dihydropyrido[2,3-d]pyrimidin-2-yl)amino)pyridin-3-yl)-6-azaspiro[2.5]octane-1-carbonyl)-2-azaspiro[3.3]heptan-6-yl)amino)-N-(1,5-dimethyl-1H-pyrazol-3-yl)-6-(isopropylamino)nicotinamide] and CC(=O)c1c(C)c2cnc(Nc3ccc(N4CCC5(CC4)CC5C(=O)N4CCC(Nc5nc(NC(C)C)ccc5C(=O)Nc5cc(C)on5)CC4)cn3)nc2n(C2CCCC2)c1=O (stereo not shown) [CPD-419, 2-((1-(6-(6-((6-acetyl-8-cyclopentyl-5-methyl-7-oxo-7,8-dihydropyrido[2,3-d]pyrimidin-2-yl)amino)pyridin-3-yl)-6-azaspiro[2.5]octane-1-carbonyl)piperidin-4-yl)amino)-6-(isopropylamino)-N-(5-methylisoxazol-3-yl)nicotinamide] cannot be ordered by pIC50: over 7.30 for the first, over 7.30 for the second.

CNc1ccc(C(=O)Nc2ccc(N(C)C)nn2)c(NC2CCC3(CC(NC(=O)CN4CCN(c5ccc(Nc6ncc7c(C)c(C(C)=O)c(=O)n(C8CCCC8)c7n6)nc5)CC4)C3)C2)n1 (stereo not shown) [CPD-416, 2-((2-(2-(4-(6-((6-acetyl-8-cyclopentyl-5-methyl-7-oxo-7,8-dihydropyrido[2,3-d]pyrimidin-2-yl)amino)pyridin-3-yl)piperazin-1-yl)acetamido)spiro[3.4]octan-6-yl)amino)-N-(6-(dimethylamino)pyridazin-3-yl)-6-(methylamino)nicotinamide] and CC(=O)c1c(C)c2cnc(Nc3ccc(N4CCC5(CC4)CC5C(=O)NC4CCC(Nc5nc(NC(C)C)ccc5C(=O)Nc5ccc(N(C)C)nn5)C4)cn3)nc2n(C2CCCC2)c1=O (stereo not shown) [CPD-417, 6-(6-((6-acetyl-8-cyclopentyl-5-methyl-7-oxo-7,8-dihydropyrido[2,3-d]pyrimidin-2-yl)amino)pyridin-3-yl)-N-(3-((3-((6-(dimethylamino)pyridazin-3-yl)carbamoyl)-6-(isopropylamino)pyridin-2-yl)amino)cyclopentyl)-6-azaspiro[2.5]octane-1-carboxamide] cannot be ordered by pIC50: under 7.00 for the first, under 7.00 for the second.

Compared with CC(=O)c1c(C)c2cnc(Nc3ccc(N4CC5(CN(CC(=O)N6CCC(Nc7nc(NC(C)C)ccc7C(=O)Nc7ccc(N(C)C)nn7)CC6)C5)C4)cn3)nc2n(C2CCCC2)c1=O [CPD-418, 2-((1-(2-(6-(6-((6-acetyl-8-cyclopentyl-5-methyl-7-oxo-7,8-dihydropyrido[2,3-d]pyrimidin-2-yl)amino)pyridin-3-yl)-2,6-diazaspiro[3.3]heptan-2-yl)acetyl)piperidin-4-yl)amino)-N-(6-(dimethylamino)pyridazin-3-yl)-6-(isopropylamino)nicotinamide], CC(=O)c1c(C)c2cnc(Nc3ccc(CN4CCN(CC(=O)N5CCC(Nc6nc(NC(C)C)ccc6C(=O)Nc6cc(C)n(C)n6)CC5)CC4)cn3)nc2n(C2CCCC2)c1=O [CPD-421, 2-((1-(2-(4-((6-((6-acetyl-8-cyclopentyl-5-methyl-7-oxo-7,8-dihydropyrido[2,3-d]pyrimidin-2-yl)amino)pyridin-3-yl)methyl)piperazin-1-yl)acetyl)piperidin-4-yl)amino)-N-(1,5-dimethyl-1H-pyrazol-3-yl)-6-(isopropylamino)nicotinamide] is lower in pIC50: over 7.30 for the first, under 7.00 for the second.

CC(=O)c1c(C)c2cnc(Nc3ccc(CN4CCN(CC(=O)N5CCC(Nc6nc(NC(C)C)ccc6C(=O)Nc6cn(C)c(C7CC7)n6)CC5)CC4)cn3)nc2n(C2CCCC2)c1=O [CPD-420, 2-((1-(2-(4-((6-((6-acetyl-8-cyclopentyl-5-methyl-7-oxo-7,8-dihydropyrido[2,3-d]pyrimidin-2-yl)amino)pyridin-3-yl)methyl)piperazin-1-yl)acetyl)piperidin-4-yl)amino)-N-(2-cyclopropyl-1-methyl-1H-imidazol-4-yl)-6-(isopropylamino)nicotinamide] gave a pIC50 of under 7.00.
